Test results reported in ChEMBL document CHEMBL1201862, “PubChem BioAssay data set” (2004).
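Assay format: 96-well plates, 48-hour exposure. Abbreviation: GI50, concentration required for 50% inhibition of growth.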 Active and inactive are the calls of the source. Rule as the data show it: active = GI50 up to about 1.1 µM and inactive = higher.

Legend:
Assay in all cases: DTP human tumour cell line panel, 48 h
SF-295 = system: SF-295
SF-539 = system: SF-539
MDA-N = system: MDA-N
U-251 = system: U-251
M14 = system: M14
SK-MEL-2 = system: SK-MEL-2
MOLT-4 = system: MOLT-4
IGROV-1 = system: IGROV-1
SK-MEL-28 = system: SK-MEL-28
KM12 = system: KM12
MDA-MB-231 = system: MDA-MB-231
DU-145 = system: DU-145
OVCAR-8 = system: OVCAR-8
SR = system: SR
A549 = system: A549
ACHN = system: ACHN
NCI-H23 = system: NCI-H23
MDA-MB-435 = system: MDA-MB-435
HCT-15 = system: HCT-15
NCI-H226 = system: NCI-H226

SMILES	GI50 (SF-295)	GI50 (SF-539)	GI50 (MDA-N)	GI50 (U-251)	GI50 (M14)	GI50 (SK-MEL-2)	GI50 (MOLT-4)	GI50 (IGROV-1)	GI50 (SK-MEL-28)	GI50 (KM12)	GI50 (MDA-MB-231)	GI50 (DU-145)	GI50 (OVCAR-8)	GI50 (SR)	GI50 (A549)	GI50 (ACHN)	GI50 (NCI-H23)	GI50 (MDA-MB-435)	GI50 (HCT-15)	GI50 (NCI-H226)
O=C(O)C1CCCCC1C(=O)Nn1cnnc1 (configuration not stated)	> 100 µM (inactive)	> 100 µM (inactive)	> 100 µM (inactive)	> 100 µM (inactive)	> 100 µM (inactive)	> 100 µM (inactive)	> 100 µM (inactive)	> 100 µM (inactive)	> 100 µM (inactive)	> 100 µM (inactive)	> 100 µM (inactive)	> 100 µM (inactive)	> 100 µM (inactive)	> 100 µM (inactive)	> 100 µM (inactive)	> 100 µM (inactive)	> 100 µM (inactive)	> 100 µM (inactive)	> 100 µM	
CC1=C(C#N)S(=O)(=O)c2c(oc(C)c2C)N1	> 100 µM (inactive)	> 100 µM (inactive)	> 100 µM (inactive)	> 100 µM (inactive)	> 100 µM (inactive)	> 100 µM (inactive)	> 100 µM (inactive)		> 100 µM (inactive)	> 100 µM (inactive)	> 100 µM (inactive)	> 100 µM (inactive)	> 100 µM (inactive)		> 100 µM (inactive)	> 100 µM (inactive)	> 100 µM (inactive)	> 100 µM (inactive)	> 100 µM	> 100 µM (inactive)
Cn1c(N)nc2c(nc(OCc3ccccc3)n2C2OC(CO)C(O)C2O)c1=O (configuration not stated)	> 100 µM (inactive)		> 100 µM (inactive)	> 100 µM (inactive)	> 100 µM (inactive)	> 100 µM (inactive)	71.8 µM (inactive)	> 100 µM (inactive)	> 100 µM (inactive)	> 100 µM (inactive)	> 100 µM (inactive)	> 100 µM (inactive)	> 100 µM (inactive)	> 100 µM (inactive)	> 100 µM (inactive)	> 100 µM (inactive)		> 100 µM (inactive)		> 100 µM (inactive)
CCCCOC(=O)NC(c1ccccc1)C(O)C(=O)OC1C[C@@]2(O)C(OC(=O)c3ccccc3)C3[C@](C)(C(=O)[C@H](OC(C)=O)C(=C1C)C2(C)C)[C@@H](O)C[C@H]1OC[C@@]31OC(C)=O (some centres not stated)	0.0159 µM (active)	0.00305 µM (active)	0.00176 µM (active)	0.00807 µM (active)	0.0102 µM (active)	0.00773 µM (active)	0.0407 µM (active)	0.00405 µM (active)		0.0031 µM (active)	0.034 µM (active)	0.0125 µM (active)	0.0117 µM (active)	0.00499 µM (active)	0.00873 µM (active)	0.0678 µM (active)	0.0139 µM (active)	0.00224 µM (active)	0.145 µM	
Cc1ccc(S(=O)(=O)c2c(O)c3ccccc3n(C)c2=O)cc1	> 100 µM (inactive)	> 100 µM (inactive)	> 100 µM (inactive)	> 100 µM (inactive)	> 100 µM (inactive)	> 100 µM (inactive)		> 100 µM (inactive)	> 100 µM (inactive)	> 100 µM (inactive)	> 100 µM (inactive)	> 100 µM (inactive)	> 100 µM (inactive)		> 100 µM (inactive)		> 100 µM (inactive)	> 100 µM (inactive)	> 100 µM	> 100 µM (inactive)
CCOC(=O)c1cc(=O)c2ccnc3c2n1CCS3	> 100 µM (inactive)	> 100 µM (inactive)	> 100 µM (inactive)	43.9 µM (inactive)	> 100 µM (inactive)	> 100 µM (inactive)	> 100 µM (inactive)	40.6 µM (inactive)	> 100 µM (inactive)	40.9 µM (inactive)	> 100 µM (inactive)	> 100 µM (inactive)	> 100 µM (inactive)		69.8 µM (inactive)	> 100 µM (inactive)	32.1 µM (inactive)	> 100 µM (inactive)	> 100 µM	> 100 µM (inactive)
COP(C)(=O)C(Cc1c[nH]c2ccccc12)NC(=O)OCc1ccccc1 (configuration not stated)	> 100 µM (inactive)	> 100 µM (inactive)	> 100 µM (inactive)	> 100 µM (inactive)	> 100 µM (inactive)	> 100 µM (inactive)	> 100 µM (inactive)	> 100 µM (inactive)	> 100 µM (inactive)	> 100 µM (inactive)	> 100 µM (inactive)	> 100 µM (inactive)	> 100 µM (inactive)		> 100 µM (inactive)	> 100 µM (inactive)	> 100 µM (inactive)	> 100 µM (inactive)	> 100 µM	> 100 µM (inactive)
